Assay results reported in US12702696B2, “Methods and composition for modulating immune response and immune homeostasis” (Massachusetts Institute of Technology, priority 2019, dated 2026).
Ends that are not written are not given here.

Legend:
[1] = tested on: sympathetic (TH+) and sensory (tdTomato+) fibers of LNs; assay: 6-OHDA-mediated chemical sympathectomy, sensory and sympathetic fiber density in popliteal LNs (whole-mount imaging); type: in vivo, mouse; conditions: 6-OHDA 100 mg kg-1 intraperitoneally daily for 5 days vs saline; popliteal LNs of Nav1.8Cre/+; Rosa26LSL-tdTomato/+ mice
Description: To address the interdependence between these two types of innervation, Applicants assessed the sensitivity of each type of fiber to 6-hydroxydopamine (6-OHDA)-mediated chemical sympathectomy or diphtheria toxin A (DTA)-mediated genetic ablation of Nav1.8 lineage neurons. […] Thus, Applicants unexpectedly discovered that LNs receive not only sympathetic but also sensory innervation, two categorically different types of innervation that are anatomically independent of each other.
Whole mount immunohistochemistry of LNs was performed using an iDISCO protocol with methanol pretreatment optimized for LNs (Renier et al., 2014). Briefly, adult animals (6-12 weeks) were perfused with 25 mL of PBS (Hyclone) and 25 mL of 4% paraformaldehyde (PFA, Sigma) sequentially at room temperature (RT). Peripheral lymph nodes (PLNs), including popliteal and inguinal lymph nodes (popLNs and iLNs), were postfixed with 4% PFA for 1 hr at 4° C. […]
For sympathetic denervation, the stock solution of 6-hydroxydopamine (6-OHDA) (Sigma) was prepared in water at 42 mg/mL and stored at −20° C. […] Animals were analyzed the following day.
For quantification of innervation density of LNs as in FIGS. 1C-1F, relevant channels were first masked with the LN isosurface as described above. […]

[2] = mice; GAL2 selective agonist; cited from earlier work

Row | Compound | effect on sensory innervation (tdTomato+ fiber density) of LNs [1] | effect on sympathetic innervation (TH+ fiber density) of LNs [1] | anticonvulsant activity [2]
1 | NCCc1cc(O)c(O)cc1O [6-OHDA, 6-hydroxydopamine] | not compromised | efficient sympathetic denervation of LNs | 
2 | Galanin 2-11 amide: GAL2 selective galanin receptor agonist, CAS #367518-31-8 (WTLNSAGYLL-NH2; UniProt P22466 34-43, looked up, fragment) |  |  | anticonvulsant in mice
